Assay [1] has as its system Staphylococcus aureus. Kind of assay: Antibacterial activity against Staphylococcus aureus ATCC 6538 after 24 hr by two-fold serial dilution method. The class given is functional. The following applies: ATCC 6538, 24 h.
Assay [2] relates to Staphylococcus aureus. Kind of assay: Antibacterial activity against resistant isolates of Staphylococcus aureus after 24 hr by two-fold serial dilution method. In kind it is functional.

SMILES strings stand for the structures. ≈ marks a conversion by molar mass, not a printed value.

As to `O=C(O)c1cn(C2CC2)c2c([N+](=O)[O-])c(Nc3cccc(Cl)c3)c(F)cc2c1=O`, the MIC in assay [1] came out at 0.9 µg/mL (≈ 2.15 µM); in assay [2], 7 µg/mL (≈ 16.8 µM).

With `O=C(O)c1cn(C2CC2)c2c([N+](=O)[O-])c(Nc3ccc(F)c(F)c3F)c(F)cc2c1=O`, the MIC in assay [1] is 39 µg/mL (≈ 89.2 µM); in assay [2], 9.8 µg/mL (≈ 22.4 µM).

Consider `O=C(O)c1cn(C2CC2)c2c([N+](=O)[O-])c(Nc3ccccc3Cl)c(F)cc2c1=O`, for which the MIC in assay [1] and in assay [2] was 6.7 µg/mL (≈ 16 µM) in each case.

With `O=C(O)c1cn(C2CC2)c2cc(N3CCNCC3)c(F)cc2c1=O` [CIPROFLOXACIN], the values for the MIC in assay [1] and in assay [2] were 2.9 µg/mL (≈ 8.75 µM) and 1.4 µg/mL (≈ 4.23 µM), respectively.

For `O=C(O)c1cn(C2CC2)c2c([N+](=O)[O-])c(Nc3ccccc3F)c(F)cc2c1=O`, the MIC in assay [1] and in assay [2] was 106 µg/mL (≈ 264 µM) each time.

For the compound `O=C(O)c1cn(C2CC2)c2c([N+](=O)[O-])c(Nc3ccc(Cl)cc3)c(F)cc2c1=O`, the MIC in assay [1] was determined as 6.7 µg/mL (≈ 16 µM); in assay [2], 9.8 µg/mL (≈ 23.5 µM).

In assay [1], `O=C(O)c1cn(C2CC2)c2c([N+](=O)[O-])c(Nc3ccccc3)c(F)cc2c1=O` returned an MIC of 11.7 µg/mL (≈ 30.5 µM).

(Values after ChEMBL document CHEMBL3046075, “Synthesis and antibacterial activity of novel 7-haloanilino-8-nitrofluoroquinolone derivatives” (2012).)
